# Laboratory results reported in US20260042764A1, “COMPOSITIONS AND METHODS FOR INHIBITION OF KRAS” (TheRas, Inc., priority 2022, published 2026).
# pIC50: −log10 of the molar value.
# Columns and labels:
# [1] = biological target: T1, Avi-KRAS G12C (2-169) GTP/RAF1 RBD-3xFLAG (51-131) (Homo sapiens, UniProt P01116, G12C); assay: Raf1-KRAS G12C-GTP disruption HTRF assay (Biological Example 3); assay type: binding; conditions: KRAS G12C, GTP-loaded
# T1 construct: Avi-KRAS G12C (2-169)
# Outline: (§1)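 An HTRF assay measured disruption of 50 nM Avi-KRAS (2-169)-GTP (WT, G12C, G12D or G12V) bound to RAF1 RBD-3xFLAG (51-131). Buffer was Tris pH 7.5 with 5 mM MgCl2 and 10% DMSO. Compounds (30–0.005 μM, 3-fold, 10 points) were incubated 1 h at room temperature, and activity is given as % of DMSO.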
# [2] = biological target: T2, Avi-KRAS WT (2-169) GTP/RAF1 RBD-3xFLAG (51-131) (Homo sapiens, UniProt P01116); assay: Raf1-KRAS WT-GTP disruption HTRF assay (Biological Example 3); assay type: binding; conditions: KRAS WT, GTP-loaded
# T2 construct: Avi-KRAS WT (2-169)
# T2 sequence (P01116 2-169 isoform P01116-2): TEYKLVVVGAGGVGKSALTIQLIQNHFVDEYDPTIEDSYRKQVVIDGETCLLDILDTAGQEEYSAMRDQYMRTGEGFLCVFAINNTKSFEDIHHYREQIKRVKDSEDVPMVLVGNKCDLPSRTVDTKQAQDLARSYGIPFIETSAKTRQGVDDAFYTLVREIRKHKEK
# Outline: as §1
# [3] = tested on: SW620 cells (KRAS G12V); assay: Cell-based pERK HTRF assay in SW620 cell (Biological Example 4); conditions: Homo sapiens, SW-620, SW620 (KRAS G12V) cells
# Outline: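 SW620 cells were treated for 4 h with compound in a 9-point half-log series from 1 μM top (0.25% DMSO), then lysed. Phospho-ERK was detected by HTRF with d2 and Eu cryptate antibodies after 4–24 h at room temperature, read at 615 nm emission.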
# [4] = biological target: T3, Avi-KRAS G12V (2-169) GTP/RAF1 RBD-3xFLAG (51-131) (Homo sapiens, UniProt P01116, G12V); assay: Raf1-KRAS G12V-GTP disruption HTRF assay (Biological Example 3); assay type: binding; conditions: KRAS G12V, GTP-loaded
# T3 construct: Avi-KRAS G12V (2-169)
# T3 sequence (P01116 2-169 isoform P01116-2 G12V): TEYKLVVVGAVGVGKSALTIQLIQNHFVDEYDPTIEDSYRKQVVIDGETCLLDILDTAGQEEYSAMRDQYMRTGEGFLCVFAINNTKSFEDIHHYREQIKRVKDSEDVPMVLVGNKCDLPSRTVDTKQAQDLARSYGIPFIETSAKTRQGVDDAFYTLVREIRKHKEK
# Outline: as §1
# [5] = biological target: T4, Avi-KRAS G12D (2-169) GTP/RAF1 RBD-3xFLAG (51-131) (Homo sapiens, UniProt P01116, G12D); assay: Raf1-KRAS G12D-GTP disruption HTRF assay (Biological Example 3); assay type: binding; conditions: KRAS G12D, GTP-loaded
# T4 construct: Avi-KRAS G12D (2-169)
# T4 sequence (P01116 2-169 isoform P01116-2 G12D): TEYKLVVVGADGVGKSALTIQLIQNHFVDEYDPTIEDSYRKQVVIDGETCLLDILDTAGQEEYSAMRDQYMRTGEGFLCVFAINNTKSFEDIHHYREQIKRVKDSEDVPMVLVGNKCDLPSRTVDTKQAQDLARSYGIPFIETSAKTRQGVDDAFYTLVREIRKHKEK
# Outline: as §1
# [6] = tested on: GP2d cells (KRAS G12D); assay: Cell-based pERK HTRF assay in GP2d cell (Biological Example 2); conditions: GP2d, GP2d (KRAS G12D) cells
# Outline: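 Treatment with test compounds lasted one hour in DMEM containing 10% FBS, with DMSO held at 0.25%. Dilution series: 9 points, half-log spacing, highest 1 μM or 100 nM. Lysates were incubated 4–24 h at room temperature with antibody mix, then HTRF was read at 320 nm excitation.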
# T1 sequence (P01116 2-169 isoform P01116-2 G12C): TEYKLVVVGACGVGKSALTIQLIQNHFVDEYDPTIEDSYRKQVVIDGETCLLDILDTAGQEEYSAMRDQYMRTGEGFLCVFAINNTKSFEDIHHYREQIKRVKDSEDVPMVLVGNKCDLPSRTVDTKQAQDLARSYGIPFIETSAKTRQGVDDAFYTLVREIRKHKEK
Structure (SMILES),pIC50 [1],pIC50 [2],pIC50 [3],pIC50 [4],pIC50 [5],pIC50 [6]
"COC(=O)N1CC[C@H](N(CCF)c2nc(OC[C@@]34CCCN3C[C@H](F)C4)nc3c(F)c(-c4ccc(F)c5sc(N)c(C#N)c45)c(C(F)(F)F)cc23)C1 (atropisomer, axis not shown) [Compound 829]",6.00 to 7.00,5.00 to 6.00,> 7.00,6.00 to 7.00,6.00 to 7.00,> 7.00
CCN(c1nc(OC[C@@]23CCCN2C[C@H](F)C3)nc2c(F)c(-c3ccc(F)c4sc(N)c(C#N)c34)c(C(F)(F)F)cc12)[C@H]1C[C@H](C)N(C(=O)C2CC2(F)F)C1 (stereo partly drawn) [Compound 881],6.00 to 7.00,6.00 to 7.00,> 7.00,6.00 to 7.00,6.00 to 7.00,> 7.00
"CCN(Cc1cccnc1)c1nc(OC[C@@]23CCCN2C[C@H](F)C3)nc2c(F)c(-c3ccc(F)c4sc(N)c(C#N)c34)c(C(F)(F)F)cc12 (atropisomer, axis not shown) [Compound 862]",5.00 to 6.00,5.00 to 6.00,> 7.00,5.00 to 6.00,5.00 to 6.00,> 7.00
CCN(c1nc(OC[C@@]23CCCN2C[C@H](F)C3)nc2c(F)c(-c3ccc(F)c4sc(N)c(C#N)c34)c(C(F)(F)F)cc12)[C@H]1C[C@H](COC)N(C(=O)C2C[C@@H]2F)C1 (stereo partly drawn) [Compound 870],6.00 to 7.00,6.00 to 7.00,> 7.00,6.00 to 7.00,6.00 to 7.00,> 7.00
"CN(Cc1ncoc1C#N)c1nc(OC[C@@]23CCCN2C[C@H](F)C3)nc2c(F)c(-c3ccc(F)c4sc(N)c(C#N)c34)c(C(F)(F)F)cc12 (atropisomer, axis not shown) [Compound 953]",5.00 to 6.00,5.00 to 6.00,6.00 to 7.00,5.00 to 6.00,6.00 to 7.00,> 7.00
"CCN(c1nc(OC[C@@]23CCCN2C[C@H](F)C3)nc2c(F)c(-c3ccc(F)c4sc(N)c(C#N)c34)c(C(F)(F)F)cc12)[C@H]1CCN(C(=O)N(C)C)[C@@H]1COC (atropisomer, axis not shown) [Compound 921]",6.00 to 7.00,6.00 to 7.00,> 7.00,6.00 to 7.00,6.00 to 7.00,> 7.00
"CCN(c1nc(OC[C@@]23CCCN2C[C@H](F)C3)nc2c(F)c(-c3ccc(F)c4sc(N)c(C#N)c34)c(C(F)(F)F)cc12)[C@H]1CCN(C(=O)[C@@H]2C[C@H]2F)[C@@H]1C (atropisomer, axis not shown) [Compound 892]",6.00 to 7.00,6.00 to 7.00,> 7.00,6.00 to 7.00,6.00 to 7.00,> 7.00
CCN(c1nc(OC[C@@]23CCCN2C[C@H](F)C3)nc2c(F)c(-c3ccc(F)c4sc(N)c(C#N)c34)c(C(F)(F)F)cc12)[C@H]1C[C@H](COC)N(C(=O)N2CC(F)C2)C1 [Compound 875],6.00 to 7.00,5.00 to 6.00,> 7.00,6.00 to 7.00,5.00 to 6.00,> 7.00
CCN(c1nc(OC[C@@]23CCCN2C[C@H](F)C3)nc2c(F)c(-c3ccc(F)c4sc(N)c(C#N)c34)c(C(F)(F)F)cc12)[C@H]1CCN(C(=O)C2CC2(F)F)[C@@H]1C (stereo partly drawn) [Compound 888],6.00 to 7.00,6.00 to 7.00,> 7.00,6.00 to 7.00,6.00 to 7.00,> 7.00
"CCN(c1nc(OC[C@@]23CCCN2C[C@H](F)C3)nc2c(F)c(-c3ccc(F)c4sc(N)c(C#N)c34)c(C(F)(F)F)cc12)[C@H]1C[C@H](COC)N(C(=O)[C@@H]2CCO2)C1 (atropisomer, axis not shown) [Compound 853]",6.00 to 7.00,6.00 to 7.00,> 7.00,6.00 to 7.00,6.00 to 7.00,> 7.00
CCN(c1nc(OC[C@@]23CCCN2C[C@H](F)C3)nc2c(F)c(-c3ccc(F)c4sc(N)c(C#N)c34)c(C(F)(F)F)cc12)[C@H]1CCN(c2ccccn2)C1 [Compound 948],5.00 to 6.00,< 5.00,> 7.00,< 5.00,5.00 to 6.00,> 7.00
